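A five-concentration, 48-hour dose response in 96-well plates underlies each endpoint, interpolated linearly between surrounding concentrations. TGI is the concentration that stops growth completely.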
What was measured:
Test in all cases: DTP human tumour cell line panel, 48 h
[1] = tested on: DLD-1 colon
[2] = tested on: DMS 114 small cell lung
[3] = tested on: XF 498 CNS
[4] = tested on: HOP-18 NSCLC
[5] = tested on: RXF-631 renal
[6] = tested on: KM20L2 colon
[7] = tested on: M19-MEL melanoma
[8] = tested on: DMS 273 small cell lung
[9] = tested on: SNB-78 CNS
[10] = tested on: LXFL 529 NSCLC

| Compound | TGI [1] [µM] | TGI [2] [µM] | TGI [3] [µM] | TGI [4] [µM] | TGI [5] [µM] | TGI [6] [µM] | TGI [7] [µM] | TGI [8] [µM] | TGI [9] [µM] | TGI [10] [µM] |
| --- | --- | --- | --- | --- | --- | --- | --- | --- | --- | --- |
| CCOC(=O)C(C(=O)OCC)S(C)(=O)=O | > 100 | > 100 | > 100 | > 100 | > 100 | > 100 | > 100 | > 100 |  |  |
| O=C(/C=C/c1ccc(O)c(O)c1)c1ccc(O)cc1O | 29.3 | 7.55 |  |  |  | 31.3 | 27.1 | 25 | 58.3 |  |
| CCOC(=O)C1=C(C)C2C3C(=O)OC(=O)C3C1(C)C1C(=O)OC(=O)C21 (stereo not drawn) | > 100 | > 100 |  |  | > 100 | > 100 | > 100 | > 100 | > 100 | > 100 |
| COc1ccccc1/C=C1\CCC(CN2CCOCC2)C1=O (stereo not drawn) | 18.1 | 35.6 | 30.1 | 31.8 | 24.4 | 32.6 | 18 | 28.4 | 48.2 | 9.34 |
| CN(CCO)c1nc(=O)c2c(n1C1OC(CO)C(O)C(O)C1O)CCCC2 (stereo not drawn) | > 100 | > 100 | > 100 | > 100 |  | > 100 | > 100 | > 100 | > 100 | > 100 |
| O=C1CS(=O)c2ccccc2N1 (stereo not drawn) | > 100 |  | > 100 | > 100 | > 100 | > 100 | > 100 | 33.9 | > 100 | > 100 |
| O=S1(=O)OCCOS(=O)(=O)C1(Br)Br | > 100 | > 100 |  |  |  |  | > 100 | > 100 | > 100 | > 100 |
| C/C(CC(=O)Nc1cccc([N+](=O)[O-])c1)=N/NC(N)=S | > 100 | > 100 |  |  |  | > 100 | > 100 |  |  | > 100 |
| COc1cc2c(c(OC)c1)C(=O)C(=O)C(CC1(C)OCCCO1)=C2 | 8.45 | 12.7 | 25.6 | 24.5 | 36.6 | 31.9 | 6.18 | 28.4 | 26 | 14.6 |
| CC(C)OP(=O)(OC(C)C)/C(=N/Nc1ccc([N+](=O)[O-])cc1)NNC(=O)c1ccccc1 | > 100 | 43.1 | 48.1 |  |  | > 100 | 41.2 |  | 80.4 | 68.5 |
| CC1=C(N2CC2)C(=O)C(C)=C(N2CC2)C1=O | 0.829 | 0.471 | 0.3 | 11.4 |  | 0.568 | 0.92 | 1.38 | > 100 | 0.431 |
| CCCCCCCC(=O)OC(COC(=O)Cc1ccccc1)COC(=O)C(C)(C)C (stereo not drawn) | > 100 | > 100 |  | > 100 | > 100 | > 100 | > 100 | > 100 |  | > 100 |
| COc1cc2cnc3c4cc(O)ccc4ccc3c2cc1OC | > 100 | 39.4 |  | > 100 |  | > 100 | > 100 |  |  | > 100 |
| C[C@H]1[C@H](C)CC[C@]2(C(=O)O)CCC3(COC(=O)/C=C/c4ccc(O)cc4)C(=CCC4[C@@]5(C)CC[C@H](O)C(C)(C)C5CC[C@]43C)[C@H]12 (stereo partly drawn) | 15.8 | 32 |  | 33.9 | 30.4 | 16.4 | > 100 | 25.9 | > 100 | 24.8 |
| COc1ccccc1NC(=O)C(=O)C(c1cnc2ccc([N+](=O)[O-])cc2n1)[N+](=O)[O-] (stereo not drawn) | > 100 | 66.4 | > 100 | > 100 | > 100 | > 100 | > 100 | > 100 | > 100 | > 100 |
| Cc1cc(N(CCC#N)CCC#N)ccc1/C=C(\N=[N+]=[N-])C(=O)NC(=O)COc1ccccc1 | > 100 | > 100 | > 100 | > 100 | > 100 | > 100 |  | > 100 | > 100 | > 100 |
| COc1ccc(OC)c(CCc2ccccc2CC(=O)O)c1 | > 100 | > 100 | > 100 | > 100 |  | > 100 | > 100 | > 100 | > 100 | > 100 |
